According to paper PMC7180617, “Biological Evaluation of 3-Benzylidenechromanones and Their Spiropyrazolines-Based Analogues” (Molecules, 2020):

Key:
NALM-6 cells = test: MTT cytotoxicity assay, NALM-6; assay type: cell-based, human; conditions: Homo sapiens, NALM-6, 48 h, MTT, 46 h + 2 h incubation
Method: (§1) The first stage of the study used the MTT viability test to determine the cytotoxicity of ten compounds, i.e., 3-arylidenechromanone, 3-arylideneflavanone, spirochromanone and spiro- flavanone analogues, against four human cancer cell lines: HL-60, NALM-6, WM-115 and COLO-205.
(§2) Cytotoxicity was tested against human skin melanoma cells (WM-115, ECACC, Salisbury, UK), two human leukemia cell lines, viz. promyelocytic leukemia (HL-60) and lymphoblastic leukemia (NALM-6), and human colon adenocarcinoma cells (COLO-205). The cell lines COLO-205, WM-115 and HL-60 used in this work came from the ATCC American Type Culture Collection (Manassas, VA, USA), whereas the NALM-6 cell line was purchased from the German Collection of Microorganisms and Cell Cultures (Braunschweig, Germany). The leukaemia cells and colon adenocarcinoma were cultured in RPMI 1640 medium (Invitrogen, Grand Island, NY, USA) supplemented with 10% fetal bovine serum (FBS; Invitrogen) and gentamicin (25 µg/mL; KRKA, Novo Mesto, Slovenia). For melanoma WM-115 cells, Dulbecco’s minimal essential medium (DMEM; Invitrogen) was used. All cell lines were cultured at 37 °C in a humidified atmosphere of 5% CO2 in air.
(§3) For all experiments, the studied compounds were dissolved in DMSO (Sigma-Aldrich) and were further diluted in culture medium to obtain <0.1% DMSO concentration. In each experiment, controls with and without 0.1% DMSO were performed. The cytotoxicity of all compounds and of the reference compounds 4-chromanone and 3-benzylideneflavanone was determined by the MTT assay, i.e., 3-(4,5-dimethylthiazol-2-yl)-2,5-diphenyltetrazolium bromide (Sigma, St. Louis, MO, USA), which measures cellular dehydrogenase activity. Exponentially growing cells were seeded a day before the experiment onto a 96-well microplates (Nunc, Roskilde, Denmark) at a density up to 6–8 × 10^3 cells/well (depending on the cell line). Subsequently, various concentrations of the studied compounds freshly prepared in DMSO and diluted with complete culture medium were added. All compounds were tested for their cytotoxicity at a final concentration of 10^−7–10^−3 M. After 46 h of incubation with the studied compounds, the cells were treated with the MTT reagent and incubation was continued for another two hours. MTT – formazan crystals were dissolved in 20% sodium dodecyl sulphate (SDS, Sigma-Aldrich) and 50% DMF (Sigma-Aldrich) at pH 4.7; following this, absorbance was read at 570 nm on a multifunctional Victor ELISA-plate reader (Perkin Elmer, Turku, Finland). The IC50 values, i.e., the concentration of the test compound required to reduce the cell survival fraction to 50% of controls, were calculated from concentration-response curves and used as a measure of the sensitivity of the cells to a given treatment. As a control, cultured cells were grown in the absence of drugs. The data points represent the means of at least five to ten repeats ± standard deviation (S.D.).

WM-115 cells = test: MTT cytotoxicity assay, WM-115; assay type: cell-based, human; conditions: Homo sapiens, WM-115, 48 h, MTT, 46 h + 2 h incubation
Method: as §1, §2, §3

COLO-205 cells = test: MTT cytotoxicity assay, COLO-205; assay type: cell-based, human; conditions: Homo sapiens, COLO 205, 48 h, 46 h + 2 h incubation
Method: as §1, §2, §3

[1] = Lipophilicity (logP) by RP-TLC; conditions: RP-18 F254S TLC plates
erythrocytes = test: Red blood cell morphology (phase-contrast microscopy); assay type: cell-based; conditions: 2% erythrocyte suspension, 37 °C, 1 h, phase contrast 400×
Method: Studies on erythrocyte morphology complement the erythrotoxicity studies because they provide information on potential immediate interactions of the tested compounds with the erythrocyte lipid bilayer, and the possibility of creating pathological forms of erythrocytes, which are not able to carry oxygen. The effects of the synthesized compounds, and the two reference compounds chromanone and flavanone, on the morphology of erythrocytes is shown in Figure 6. Briefly, 2% RBC suspension was incubated with 0.9% NaCl (control samples) or tested compounds at various concentrations corresponding to their activity towards cancer cell lines.
A 2% erythrocyte suspension was incubated at 37 °C for one hour with various concentrations of synthesized compounds. The morphology of the RBCs was examined by means of a phase contrast Opta-Tech inverted microscope, at 400× magnification, equipped with software (OptaView 7) for image analysis.

O=C1/C(=C/c2ccccc2)COc2ccccc21 [Compound 7, (E)-3-benzylidene-chroman-4-one]
IC50 (NALM-6 cells): 6.83 ± 0.18 µM
IC50 (WM-115 cells): 12.8 ± 1.83 µM
IC50 (COLO-205 cells): 31 ± 1.4 µM
chromatographic logP [1]: 4.23
erythrocyte morphology (in words) (erythrocytes): primarily led to echinocytosis, however single anisocytes could also be detected
